Data on six compounds can be found in ChEMBL document CHEMBL3091435, “Protein-Ligand Interactions: Thermodynamic Effects Associated with Increasing the Length of an Alkyl Chain” (ACS Med Chem Lett, 2013).

Square brackets hold non-standard residues; d marks the D form. Peptide text beside a SMILES is read from it. pY = N[C@@H](Cc1ccc(OP(=O)(O)O)cc1)C(=O)O; Ahp(2) = CCCCC[C@H](N)C(=O)O; Nle = CCCC[C@H](N)C(=O)O; Nva = CCC[C@H](N)C(=O)O; Abu = CC[C@H](N)C(=O)O

In this experiment the target is Growth factor receptor-bound protein 2 (Homo sapiens) (UniProt P62993). Kind of experiment: Binding affinity to Grb2 SH2 domain (53 to 163) (unknown origin) expressed in Escherichia coli SG13009 by ITC analysis. On the technique in general: In ITC the heat of successive injections is recorded.
Chain of Growth factor receptor-bound protein 2 (Homo sapiens) (P62993 whole entry, looked up, the tested form may be a part): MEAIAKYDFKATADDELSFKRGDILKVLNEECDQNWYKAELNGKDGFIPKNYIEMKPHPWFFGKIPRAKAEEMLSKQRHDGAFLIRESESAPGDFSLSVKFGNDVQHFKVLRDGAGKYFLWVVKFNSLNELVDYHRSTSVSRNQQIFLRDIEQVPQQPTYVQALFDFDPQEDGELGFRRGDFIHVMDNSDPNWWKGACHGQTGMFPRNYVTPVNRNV
In turn, `CCC[C@H](NC(=O)[C@H](Cc1ccc(OP(=O)(O)O)cc1)NC(C)=O)C(=O)N[C@@H](CC(N)=O)C(N)=O` (Ac-[pY]-[Nva]-Asn-NH2) gave a Ka of 7.6 ×10⁵ /M. With `CCCC[C@H](NC(=O)[C@H](Cc1ccc(OP(=O)(O)O)cc1)NC(C)=O)C(=O)N[C@@H](CC(N)=O)C(N)=O` (Ac-[pY]-[Nle]-Asn-NH2), the Ka was determined as 8.4 ×10⁵ /M. In the case of `CCCCC[C@H](NC(=O)[C@H](Cc1ccc(OP(=O)(O)O)cc1)NC(C)=O)C(=O)N[C@@H](CC(N)=O)C(N)=O` (Ac-[pY]-[Ahp(2)]-Asn-NH2), the Ka came out at 7.8 ×10⁵ /M. `CC(=O)N[C@@H](Cc1ccc(OP(=O)(O)O)cc1)C(=O)N[C@@H](C)C(=O)N[C@@H](CC(N)=O)C(N)=O` (Ac-[pY]-Ala-Asn-NH2) showed a Ka of 2.2 ×10⁵ /M. Under `C/C=C\[C@H](NC(=O)[C@H](Cc1ccc(OP(=O)(O)O)cc1)NC(C)=O)C(=O)N[C@@H](CC(N)=O)C(N)=O` stands 6.1 ×10⁵ /M; under `CC[C@H](NC(=O)[C@H](Cc1ccc(OP(=O)(O)O)cc1)NC(C)=O)C(=O)N[C@@H](CC(N)=O)C(N)=O` (Ac-[pY]-[Abu]-Asn-NH2), 8.6 ×10⁵ /M.
